Data reported in the supplement of paper PMC10307832.

Legend:
Test in all cases: relative viability (nuclei count vs DMSO), 5 days (fraction); higher = more cells survive
Bromopyruvate + Olaparib = compound: C(C(=O)C(=O)O)Br [Bromopyruvate] + O=C(c1cc(Cc2n[nH]c(=O)c3ccccc23)ccc1F)N1CCN(C(=O)C2CC2)CC1 [Olaparib] (partner 8 µM)
Summary of the method: (§1)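 Relative viability was taken as the ratio of nuclei in treated wells to nuclei in vehicle wells. Lung cancer cell lines in 1536-well plates received compounds by pin tool one day after seeding, either one drug alone or a fixed anchor-drug dose plus five library-drug doses (not always all listed) in √10 steps. Nuclei were counted on 4× images after 5 days of treatment, and values are medians of duplicate plates.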

[1] = compound: CC(O)(CS(=O)(=O)c1ccc(F)cc1)C(=O)Nc1ccc(C#N)c(C(F)(F)F)c1 [Bicalutamide] + CC(C)C[C@H](NC(=O)[C@H](Cc1ccccc1)NC(=O)c1cnccn1)B(O)O [Bortezomib] (partner 0.002 µM)
Summary of the method: as §1

[2] = compound: CC(O)(CS(=O)(=O)c1ccc(F)cc1)C(=O)Nc1ccc(C#N)c(C(F)(F)F)c1 [Bicalutamide] + C[C@]1(O)C[C@@H](c2nc(-c3ccc4ccc(-c5ccccc5)nc4c3)c3c(N)nccn32)C1 [Linsitinib] (partner 1 µM)
Summary of the method: as §1

[3] = compound: C(C(=O)C(=O)O)Br [Bromopyruvate] + Cc1nc(NC(=O)N2CCC[C@H]2C(N)=O)sc1-c1ccnc(C(C)(C)C(F)(F)F)c1 [Alpelisib] (partner 2 µM)
Summary of the method: as §1

| Cell Line | relative viability (Bromopyruvate + Olaparib; first compound 1 µM) | relative viability (Bromopyruvate + Olaparib; first compound 3.162 µM) | relative viability (Bromopyruvate + Olaparib; first compound 10 µM) | relative viability (Bromopyruvate + Olaparib; first compound 31.62 µM) | relative viability (Bromopyruvate + Olaparib; first compound 100 µM) | relative viability ([1]; first compound 0.08 µM) | relative viability ([1]; first compound 0.253 µM) | relative viability ([1]; first compound 0.8 µM) | relative viability ([1]; first compound 2.53 µM) | relative viability ([2]; first compound 0.08 µM) | relative viability ([2]; first compound 0.253 µM) | relative viability ([2]; first compound 0.8 µM) | relative viability ([2]; first compound 2.53 µM) | relative viability ([3]; first compound 1 µM) | relative viability ([3]; first compound 3.162 µM) | relative viability ([3]; first compound 10 µM) | relative viability ([3]; first compound 31.62 µM) | relative viability ([3]; first compound 100 µM) |
| --- | --- | --- | --- | --- | --- | --- | --- | --- | --- | --- | --- | --- | --- | --- | --- | --- | --- | --- |
| HCC-44 | 0.939 | 0.932 | 0.969 | 0.938 | 0.972 | 0.936 | 0.953 | 0.961 | 0.989 | 0.67 | 0.664 | 0.691 | 0.788 | 0.781 | 0.83 | 0.859 | 0.916 | 0.863 |
| HCC-827 | 0.757 | 0.706 | 0.732 | 0.616 | 0.588 | 1.12 | 0.964 | 1.04 | 0.98 | 0.945 | 0.896 | 0.993 | 0.964 | 1.03 | 0.988 | 0.972 | 1.02 | 0.967 |
| NCI-H2405 | 0.879 | 0.859 | 0.916 | – | 0.402 | 1.02 | 1.01 | 1.05 | 0.986 | 0.897 | 0.873 | 1.06 | 0.901 | 0.773 | 0.779 | 0.89 | 0.583 | 0.737 |
| PC-3 [JPC-3] | 1.22 | – | 1.11 | – | 1.11 | 0.808 | 0.909 | 0.908 | 0.818 | 0.927 | 1.02 | 0.986 | 1.02 | 1.06 | 1.01 | 1.01 | 1.06 | 1.03 |
| NCI-H1651 | 0.188 | 0.182 | 0.187 | 0.207 | 0.167 | 0.917 | 0.864 | 1.04 | 0.959 | 0.966 | 0.903 | 1.1 | 0.913 | 0.881 | 1.06 | 0.876 | 0.868 | 0.912 |
| HARA | 0.836 | 1.45 | – | 0.632 | 0.738 | 1.15 | 1.02 | 1.14 | 1.22 | 0.953 | 0.797 | 1.06 | 1.1 | 0.792 | 0.868 | 1.04 | 0.802 | 0.858 |
| NCI-H1650 | 0.82 | 0.734 | 0.723 | 0.71 | 0.567 | 0.172 | 0.204 | 0.192 | 0.175 | – | – | – | – | – | – | – | – | – |
| NCI-H1395 | 0.447 | 0.452 | 0.476 | 0.52 | 0.443 | – | – | – | – | 1.22 | 1.03 | 1.09 | 1 | 1.02 | 1.46 | 1.26 | 1.06 | 0.991 |
| NCI-H1993 | 1.56 | 1 | 0.927 | 1.09 | 1.02 | – | 0.897 | 1.31 | 1.12 | – | 0.77 | 0.707 | 0.738 | 0.691 | 0.705 | 0.668 | 0.642 | 0.644 |
| LU99A | 0.267 | 0.237 | 0.241 | 0.26 | 0.134 | 0.995 | 0.964 | 1.24 | 0.846 | 0.512 | 0.486 | 0.566 | 0.47 | 0.516 | 0.491 | 0.512 | 0.561 | 0.483 |
| NCI-H1355 | 0.738 | 0.762 | 0.681 | 0.764 | 0.776 | 1.21 | 1.07 | 1.43 | 1.1 | 0.781 | 0.782 | 0.957 | 0.805 | 0.833 | 0.961 | 0.774 | 0.872 | 0.903 |
| HCC-78 | 0.762 | 0.811 | 0.944 | 0.776 | 0.848 | 0.498 | 0.504 | 0.479 | 0.556 | 0.585 | 0.462 | 0.599 | 0.445 | 0.305 | 0.354 | 0.421 | 0.452 | 0.373 |
| NCI-H1563 | – | – | – | – | – | 0.973 | 0.775 | 0.885 | 0.767 | 1.28 | 1.2 | 1.12 | 1.07 | 0.984 | 1.02 | 0.825 | 0.978 | 0.809 |
| HCC-15 | 0.745 | 0.735 | 0.697 | 0.734 | 0.699 | 1.03 | 0.953 | 1.21 | 0.983 | 0.826 | 0.837 | 0.932 | 0.969 | 0.929 | 0.947 | 0.962 | 0.852 | 0.8 |
| EKVX | 0.73 | 0.87 | 0.843 | 0.861 | 0.874 | 0.994 | 1.1 | 1.37 | 0.952 | 1.06 | 1.04 | 1.06 | 0.894 | 0.875 | 0.815 | 1.01 | 0.86 | 0.943 |
| NCI-H2126 | 0.912 | 0.879 | 0.988 | 0.939 | 0.923 | 1.12 | 1.09 | 1.08 | 1.06 | 0.737 | 0.724 | 0.731 | 0.68 | 0.796 | 0.755 | 0.768 | 0.751 | 0.744 |
| LK-2 | 0.827 | 0.816 | 0.815 | 0.591 | 0.717 | – | – | – | – | 0.715 | 0.349 | 0.64 | 0.657 | 0.565 | 0.991 | 1.14 | 1.16 | 1.22 |
| NCI-H1437 | 0.647 | 0.664 | 0.656 | 0.62 | 0.627 | 0.493 | 0.372 | 0.759 | 0.455 | 1.01 | 1 | 1.28 | 0.965 | 0.967 | 1.06 | 1.21 | 0.911 | 0.989 |
| COR-L23 | 0.398 | 0.342 | 0.349 | 0.319 | 0.129 | 1.09 | 0.862 | 1.13 | 0.926 | 0.997 | 0.919 | 1.16 | 0.732 | 0.771 | 0.849 | 0.9 | 0.665 | 0.405 |
